Measurements from ChEMBL document CHEMBL3867478, “ProTides of BVdU as potential anticancer agents upon efficient intracellular delivery of their activated metabolites” (Bioorg Med Chem Lett, 2016).

Test: Drug level in pH 7.6 trizma buffer treated with 5 mg (E)-5-(2-bromovinyl)-2'-deoxyuridine-5'-(1-naphthyl(methoxy-L-tryptophanyl)-phosphate assessed as carboxypeptidase Y (unknown origin)-mediated compound formation measured every 7 mins for 14 hrs by [31P]-NMR spectroscopic analysis
Format: ADME
Conditions: pH 7.6, 14 h

SMILES | Drug metabolism
O=C(O)C(Cc1c[nH]c2ccccc12)NP(=O)(O)OC[C@H]1O[C@@H](n2cc(/C=C/Br)c(=O)[nH]c2=O)C[C@@H]1O (stereo partly drawn) | Metabolite_Detected
O=C1OP(=O)(OC[C@H]2O[C@@H](n3cc(/C=C/Br)c(=O)[nH]c3=O)C[C@@H]2O)NC1Cc1c[nH]c2ccccc12 (stereo partly drawn) | Metabolite_Detected
O=C(O)C(Cc1c[nH]c2ccccc12)NP(=O)(OC[C@H]1O[C@@H](n2cc(/C=C/Br)c(=O)[nH]c2=O)C[C@@H]1O)Oc1cccc2ccccc12 (stereo partly drawn) | Metabolite_Detected
